These results are taken from EP0499648A1, “Enzymatically debranched starches as tablet excipients” (National Starch and Chemical Investment Holding Corporation, priority 1991, dated 1992).

The nature of series [1]: Visual observation of direct compression APAP tablets (structural integrity, capping, splitting, surface). Type of series: physicochemical. Conditions: direct compression APAP formula. On the procedure:
(§1) Direct compression tabletting in a laboratory scale tablet press (Stokes, Model B-2, 16 station rotary tablet press with 3/8'' standard concave punches, obtained from Stokes Co., Warminster, PA) was used to prepare tablets from the following formula: […]
(§2) Tablets weighing from 360-460 mg were formed in the tablet press at pressure settings from A (low) to I (high) by adjusting the weight setting for each pressure setting. Compressibility is expressed as a profile obtained by increasing the pressure setting until the accompanying increases in the tablet hardness measurements leveled off. Tablet hardness was determined on a hydraulic tablet hardness tester (Delamar, Model PT 1000, obtained from VanKel Industries, Edison, New Jersey) in units of Kg/cm².
The starch debranching and tabletting methods of Example 1 were employed to make direct compression tablets according to the formula of Example 1.

A short description of series [2]: Direct compression tabletting of APAP formula: compression profile (tablet hardness vs. press pressure setting). The class given is physicochemical. Conditions: 64% APAP, 34.75% binder. On the procedure:
as §1
All ingredients except the binder were dry blended, screened through a 10 mesh sieve and blended with the binder.
as §2

As to `CC(=O)Nc1ccc(O)cc1` [100% APAP, Acetaminophen], the “compressibility and structural integrity of tablets (visual observation)” value in series [1] was “a. Not compressible”; in series [1] (listed as acetaminophen (APAP)) it was “does not compress to form a tablet”. Besides, the “Tablet Hardness” value in series [2] (machine position A (low pressure setting)), in series [2] (machine position B), in series [2] (machine position C), in series [2] (machine position D), in series [2] (machine position E) and in series [2] (machine position F) was 0 Kg/cm² in each case. The “Tablet Hardness” value in series [2] (machine position G), in series [2] (machine position H) and in series [2] (machine position I (high pressure setting)) was 0 Kg/cm² throughout.
